Test results from publication PMC12463120, “Phenylalanine‐Based DNA‐Encoded Chemical Libraries for the Discovery of Potent and Selective Small Organic Ligands Against Markers of Cancer and Immune Cells” (Advanced Science, 2025).
“Also recorded” adds a separate entry of the source.

Columns and labels:
[1] = tested on: NK-92 cells; assay: In vitro interferon-gamma release assay on NK-92 cells; type: cell-based, human; details: serial dilution from 7.5 µM, 24 h
Protocol: plate (20 µL/well). Test compounds (300 nM, in 175 µL of FACS buffer) were added to the wells containing the beads. Plates were further incubated in the dark at room temperature for 1 hour and subsequently centrifuged at 2’500 rpm at 4 °C for 3 min. Beads were washed and resuspended in FACS buffer (200 µL). Data were acquired halting the measurement at 10’000 events on a Cytoflex S flow cytometer (Beckman Coulter) and analyzed using the FlowJo software v10 (BD Biosciences).
2.19 In vitro interferon-gamma release assay
Compounds 26 and 30 were tested for their ability to induce interferon-gamma (IFN-γ) release upon incubation with NK-cells. NK-92 cells were initially starved for 4 h in plain RPMI medium. […] After 24 h, cell-free supernatants were collected, and the concentration of IFN-γ was measured using the ELISA MAXTM Set Human IFN-γ kit (BioLegend). […]
The sections were blocked with 20% FCS (Invitrogen) and 3% BSA in PBS (pH 7.4) for 30 min and washed three times with PBS (pH 7.4). […] Images were recorded on a CR-35 Bio scanner and processed with the AIDA image analysis […]
2.21 Quantitative in vivo biodistribution studies […]
Figure S39. […] After 24 hours of incubation, IFN-γ levels in the culture supernatant were measured by ELISA. […]

[2] = tested on: various unrelated proteins, including TAAs and serological proteins; assay: ELISA against multiple proteins (specificity); type: binding
Protocol: 2.13 ACP3 colorimetric enzymatic assay
Grenier 384 transparent, flat-bottom well plates were used. Each test compound was measured in triplicate. 16 µL of a solution of the compound (3µM, 5% DMSO in PBS for small molecules or PBS only for DNA-conjugates, pH 7.4) was loaded into the first well row. A serial 1:2 (on DNA) or 1:3 (off DNA) dilution in DMSO/PBS (5/95, off DNA) or only PBS (on DNA) was performed in a total volume per well of 8 µL. Human recombinant ACP3 (16 µL solution, 2.5 nM in PBS, pH 7.4) was added to each well.
After 10 min of incubation, 16 µL of a solution of para-nitrophenyl phosphate (pNPP, substrate, 5 mM in PBS, pH 7.4) was added. The plate was left to develop in the dark for 16 hours. Enzymatic reaction on the substrate (phosphate group removal by ACP3) was assessed by measuring absorption at 405 vs 620 nm on a Spectra Max Paradigm multimode plate reader ([…]).
2.14 Surface plasmon resonance (SPR)
SPR measurements were performed on a Biacore X100. […]
The protein (100 μL/well, 170 nM) was incubated for 2 h at 4 °C on a StreptaWell plate (transparent 96 - well plate, Roche #11645692001). […] The absorbance was measured at 450 nm (reference level, 620–650 nm) with a Spark multimode microplate reader (Tecan Life Sciences). […]

CC(C)Oc1ccc(-c2cccc(C[C@H](NC(=O)c3ccccc3-c3ccc(C(F)(F)F)cc3)C(=O)N[C@@H](CCCCNC(=S)Nc3ccc4c(c3)C(=O)OC43c4ccc(O)cc4Oc4cc(O)ccc43)C(=O)O)c2)c(F)c1 [compound 30]
IFN-γ release by NK-92 cells [1]: did not induce IFN-γ release; also recorded: not found to induce the release | selectivity by ELISA against multiple proteins [2]: high selectivity over various unrelated proteins
